Measurements: PMC8967716, “Inhibition of calcium-triggered secretion by hydrocarbon-stapled peptides” (Nature, 2022)
pKd: −log10 of the molar value. “And” between values parts separate entries of the source, which are not always exact repeats. Identical values can stand only once. “Also recorded” adds a separate entry of the source. Positions of bridges follow the written chain, without caps; N, C: chain ends. Non-standard residues stand in square brackets, D forms with d. Residues, ends and D or L forms follow the SMILES beside them. S5 = C=CCCC[C@](C)(N)C(=O)O

Assays:
[1] = CD spectroscopy, α-helical content; type: physicochemical; conditions: 100 μM peptide in PBS pH 7.4, [φ]222obs relative to model helical decapeptide
Method: CD spectra were measured using the AVIV stop-flow CD spectropolarimeter at 190–250 nm using a cell with a 1 mm path length. […] For the correction of the baseline error, the signal from a blank run with PBS buffer was subtracted from all the experimental spectra. The α-helical content of each peptide was calculated by dividing the mean residue ellipticity [φ]222obs by the reported [φ]222obs for a model helical decapeptide.

[2] = test system: reconstituted neuronal SNAREs (Stx1A, SNAP-25A, VAMP2) and Syt1; experiment: Single-vesicle content mixing assay, neuronal SNAREs and Syt1; type: biochemical
[3] = test system: airway SNAREs alone; experiment: Single-vesicle content mixing assay, airway SNAREs alone (VAMP8 vesicles); conditions: for Ca2+ independent fusion per sec: ED Fig 7k
[4] = biological target: Syt1 C2B(QM) quintuple mutant (Rattus norvegicus, UniProt P21707, E295A/R281A/R398A/R399A/Y338W); experiment: Bulk fluorescence anisotropy binding; conditions: Cy3-labelled SP9, fluorescence anisotropy
[5] = biological target: airway SNAREs, Syt2, Munc13-2*, Munc18-2, NSF and αSNAP (Rattus norvegicus, UniProt P29101); experiment: Single-vesicle content mixing assay, complete reconstitution; type: biochemical
Method: For the complete reconstitution (Fig. 3), to form airway SM vesicles with reconstituted Stx3–Munc18-2 complex, we added the ‘disassembly factors’ (1 μM Munc18-2, 0.5 μM NSF, 5 μM αSNAP, 3 mM ATP and 3 mM Mg^2+) to tethered airway PM vesicles (Fig. 3b), according to previous work with neuronal proteins. This procedure results in tethered SM vesicles.

[6] = biological target: reconstituted airway epithelial SNAREs (Stx3, SNAP-23, VAMP8) and Syt2 (Rattus norvegicus, UniProt P29101); experiment: Single-vesicle content mixing assay, simple reconstitution (SR); conditions: for Ca2+ independent fusion per sec: ED Fig 7d
[7] = test system: neuronal SNAREs alone; experiment: Single-vesicle content mixing assay, neuronal SNAREs alone (VAMP2 vesicles); type: biochemical
[8] = test system: MUC5AC secretion from primary human airway epithelial (HAE) cells; experiment: Mucin-secretion assay in HAE cells; conditions: 10 μM peptide 30 min; for ratio of experimental to baseline MUC5AC secretion, mean: mean of n = 4–5 ALI cultures
[9] = test system: airway lumenal mucus; experiment: Airway lumenal mucus occlusion in peptide-treated mice; conditions: IL-13 metaplasia, 200 μM peptide by microsprayer 30 min before methacholine; sections at 500 µm intervals; each value one mouse
[10] = biological target: SP9–Cy3 (hydrocarbon-stapled SNAP-25A fragment SP9 labelled with Cy3 at the C terminus); experiment: fluorescence polarisation; bulk fluorescence anisotropy; 10 nM Cy3-labelled peptide mixed with varying concentrations of unlabelled C2B domain; TBS (20 mM Tris, pH 7.5, 150 mM NaCl, 0.5 mM TCEP), 27.2 °C; Hill equation fit with the Hill coefficient constrained to 1
[11] = 10 μM peptide, each value one repeat experiment

Sequence of reconstituted airway epithelial SNAREs (Stx3, SNAP-23, VAMP8) and Syt2 (P29101 whole entry, the tested form may be a part): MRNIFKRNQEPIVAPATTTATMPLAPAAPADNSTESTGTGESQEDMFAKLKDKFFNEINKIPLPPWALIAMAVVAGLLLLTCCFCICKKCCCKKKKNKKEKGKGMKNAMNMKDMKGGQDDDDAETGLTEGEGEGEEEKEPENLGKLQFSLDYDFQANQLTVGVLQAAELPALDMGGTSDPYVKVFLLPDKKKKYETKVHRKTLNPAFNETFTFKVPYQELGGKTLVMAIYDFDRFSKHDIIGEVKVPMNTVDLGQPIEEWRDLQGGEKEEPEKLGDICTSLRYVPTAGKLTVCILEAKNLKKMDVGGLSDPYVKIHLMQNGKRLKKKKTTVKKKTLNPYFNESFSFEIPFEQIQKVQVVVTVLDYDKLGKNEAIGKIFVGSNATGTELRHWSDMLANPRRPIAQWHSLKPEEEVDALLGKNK
Sequence of airway SNAREs, Syt2, Munc13-2*, Munc18-2, NSF and αSNAP (P29101 whole entry): as the sequence (P29101 whole entry, the tested form may be a part) above
Sequence of Syt1 C2B(QM) quintuple mutant (P21707 271-421 R281A/E295A/Y338W/R398A/R399A): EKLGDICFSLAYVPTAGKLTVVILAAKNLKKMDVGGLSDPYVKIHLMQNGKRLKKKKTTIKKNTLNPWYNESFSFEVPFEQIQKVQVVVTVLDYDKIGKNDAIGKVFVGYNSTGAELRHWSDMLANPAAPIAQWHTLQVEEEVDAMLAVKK
Sequence of Syt2 C2B (C2B domain of synaptotagmin-2, amino acid range 272–422) (P29101 272-422): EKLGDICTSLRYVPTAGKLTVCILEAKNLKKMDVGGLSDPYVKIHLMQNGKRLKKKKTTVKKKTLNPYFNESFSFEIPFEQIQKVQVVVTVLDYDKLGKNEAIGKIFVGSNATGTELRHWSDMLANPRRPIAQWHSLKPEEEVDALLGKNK
Sequence of Syt1 C2B (C2B domain of synaptotagmin-1, amino acid range 271–421) (P21707 271-421): as the sequence (P21707 271-421 R281A/E295A/Y338W/R398A/R399A) above, with A11R, A25E, W68Y, A128R, A129R counted along it

In the case of `CC[C@H](C)[C@H](NC(=O)[C@]1(C)CCCC=CCCC[C@](C)(NC(=O)[C@H](CCC(=O)O)NC(=O)[C@H](CCC(=O)O)NC(C)=O)C(=O)N[C@@H](CCCCN)C(=O)N[C@@H](CC(=O)O)C(=O)N[C@@H](C)C(=O)N1)C(=O)N[C@@H](CCCNC(=N)N)C(=O)N[C@@]1(C)CCCC=CCCC[C@@](C)(C(=O)N[C@@H](CC(=O)O)C(=O)N[C@@H](CCC(=O)O)C(=O)N[C@@H](CCC(N)=O)C(=O)N[C@@H](CS)C(N)=O)NC(=O)[C@H](CCSC)NC(=O)[C@H](C(C)C)NC(=O)[C@H](CC(C)C)NC1=O` [SP9] (Ac-EE[S5]KDA[S5]IR[S5]LVM[S5]DEQC-NH2; staple 3-7, 10-14), the helicity in solution [1] was “substantial helical content”, the Vesicle association ([2]; 10 μM peptide added with SV vesicles, each value one repeat experiment) was 248 and 327 and 271 and the “effect on Ca2+-triggered and Ca2+-independent fusion” value ([2]; SP9 vs no peptide) was “reduced both Ca^2+-triggered fusion and Ca^2+-independent fusion”. The “effect on vesicle association” value ([2]; SP9 vs no peptide) was “no effect”, the “Ca2+ independent fusion per sec” value ([3]; repeat 1) was 0.0003451 and the “Ca2+ independent fusion per sec” value ([3]; repeat 2) was 0.000303. The “Ca2+ independent fusion per sec” value ([3]; repeat 3) was 0.0004574, the “Ca2+ independent fusion per sec” value ([3]; repeat 4) was 0.0004141 and the “effect on vesicle fusion without Syt2 (VAMP8 vesicles)” value ([3]; SP9 vs no peptide) was “no effect; also recorded: inhibitory effect of SP9 was eliminated”. The “binding to quintuple mutant Syt1 C2B(QM)” value [4] was “does not bind”, the “effect on Ca2+-independent fusion probability” value ([5]; 10 μM SP9) was “only moderately reduced; also recorded: relatively modest” and the “effect on Ca2+-triggered fusion amplitude, cumulative fusion probability and synchronization” value ([5]; 10 μM SP9, 50 μM and 500 μM Ca2+) was “strongly inhibited”. The “Ca2+ independent fusion per sec (average probability)” value ([5]; 10 μM SP9, each value one repeat experiment) was 0.0004902 and 0.0004307 and 0.0004714 and 0.0004646 and 0.0003557 and 0.0002469, the Vesicle association ([5]; 10 μM SP9 added with SG vesicles, each value one repeat experiment) was 88 and 78 and 74 and 91 and the “decrease in the Ca2+-triggered fusion amplitude” value ([5]; 10 μM SP9 vs no peptide) was “eight to tenfold decrease”. The “effect on vesicle association” value ([5]; 10 μM SP9 vs no peptide) was “no effect”, the “triggered fusion accumulative probability (within 1 min)” value ([5]; 50uM Ca2+, 10 μM SP9, each value one repeat experiment) was 0.0662 and 0.06402 and 0.09074 and the “triggered fusion accumulative probability (within 1 min)” value ([5]; 500uM Ca2+, 10 μM SP9, each value one repeat experiment) was 0.08824 and 0.05943 and 0.07879. For the same compound, the “Ca2+ independent fusion per sec (average probability)” value ([6]; 10 μM peptide added with SG vesicles, each value one repeat experiment) was 0.0006901 and 0.0004797 and 0.000382 and 0.0006421, the “effect on Ca2+-independent fusion probability and Ca2+-triggered cumulative fusion probability” value ([6]; 10 µM peptide vs no peptide) was “reduced both Ca^2+-triggered and, to a lesser degree, Ca^2+-independent fusion” and the “Ca2+ independent fusion per sec” value ([6]; repeat 1) was 0.0006901. The “Ca2+ independent fusion per sec” value ([6]; repeat 2) was 0.0004797, the “Ca2+ independent fusion per sec” value ([6]; repeat 3) was 0.000382 and the “Ca2+ independent fusion per sec” value ([6]; repeat 4) was 0.0006421. For the same compound, the “effect on vesicle association” value ([6]; SP9 vs no peptide) was “no effect”, the “Ca2+ independent fusion per sec (average probability)” value [7, 11] was 0.0007718 and 0.0006567 and 0.001053 and 0.0009453 and the Vesicle association [7, 11] was 135 and 160 and 137. The “effect on vesicle fusion without Syt1 (VAMP2 vesicles)” value ([7]; SP9 vs no peptide) was “no effect; also recorded: little effect”, the “ratio of experimental to baseline MUC5AC secretion, mean” value ([8]; IL13+ATP (100 µM ATP)) was 3.4860 and the “ratio of experimental to baseline MUC5AC secretion, mean” value ([8]; IL13, no ATP) was 0.7820. The “ratio of baseline to reference wash MUC5AC secretion, mean” value ([8]; IL-13 cultures, mean of n = 8–10 ALI cultures) was 0.7120.

For Ac-EESKDAGIRTLVMLDEQ-NH2 [P9], the “sum of lumenal mucus cross-sectional area, caudal lobe of the right lung” value [9] was 0.382 and 0.464 and 0.617 and 0.201 and 0.286 and 0.712 and 0.372.

“Syt1 C2B (C2B domain of synaptotagmin-1, amino acid range 271–421) (from UniProt P21707 271-421) (domain or fragment)” gave a pKd [10] of 4.62.

With “Syt2 C2B (C2B domain of synaptotagmin-2, amino acid range 272–422) (from UniProt P29101 272-422) (domain or fragment)” the pKd [10] was 4.46.
